These results are taken from patent US8044057B2, “Methods for suppressing an immune response or treating a proliferative disorder” (The United States of America as represented by the …, priority 2003, dated 2011).

One experiment relates to P70 S6 kinase. In words: Western blot of phospho-p70 S6 kinase T389 in A549 cells. The class given is cell-based, human. As for the experimental part:
A549 cells were treated without or with 100 mcM LY303511, 200 ng/ml rapamycin, or 50 nM wortmannin in serum free media for 1 hour before addition of E. coli lipopolysaccharide (LPS), […] and interferon (IFN)-γ, 100 U/ml (LPS/IFN-γ or “L/I”). Cells were homogenized and the indicated proteins (see Table 1) were detected by Western blot. Western blots are from the same experiment, and representative of three experiments.
In another experiment, A549 cells were grown to sub-confluence in serum-containing media, and incubated with a vehicle, 100 mcM LY303511, or rapamycin, 200 ng/ml for 0, 12, or 24 hours. Cells were lysed, and proteins separated by SDS-PAGE before transfer to nitrocellulose membranes. Membranes were incubated with antibodies against p27Kip1, p21 Cip1 orphospho-P70 S6 kinase T389.
Measurement of protein phosphorylation: A549 cells were incubated in serum-free medium without or with inhibitors for 1 hour, as indicated, before incubation for 30 minutes with a mixture of LPS, 100 μg/ml (Sigma; St. Louis, Mo.) and IFN-γ, 100 U/ml (Roche; Nutley, N.J.). PASM cells were incubated in serum-free medium without or with inhibitors for 24 h as indicated, before incubation for 30 min with 10% FBS. A549 or PASM cells were washed once with cold PBS and incubated for 15 minutes on ice ih lysis buffer (20 mM Tris pH 8.0, 1% Nonidet P-40, 1 mM EDTA, 5 mM benzamidine, aprotinin, 10 μg/ml, leupeptin, 10 μg/ml, trypsin soybean inhibitor, 1 mM PMSF, 50 mM sodium fluoride, 100 μM sodium orthovanadate, and 1: 100 Sigma phosphatase inhibitor set I containing cantharidin, microcystin LR and bromotetramizole). After freezing and thawing, lysates were centrifuged for 30 min at 16,000×g before protein measurement and storage at −80° C. Equal amounts of total protein were separated by SDS-PAGE, and transferred to a nitrocellulose membrane, before immunoblotting with primary antibodies as indicated. Membranes were treated with anti-rabbit IgG or anti-mouse IgG antibodies (Promega; Madison, Wis.) linked to horseradish peroxidase, developed using an enhanced chemiluminescence detection kit (SuperSignal West Pico, Pierce; Rockford, Ill.), and exposed to X-ray film, which was scanned using an Epson Expression 636 scanner. Integrated band densities were quantified using Scion Image beta 3b software.

The next experiment relates to A549 cells. In words: BrDU incorporation (in situ ELISA) in A549 cells. It is filed as cell-based, human. The conditions noted are these: 24 hours, 0-200 μM LY303511 without or with rapamycin 200 ng/ml. Background: ELISA stands for enzyme-linked immunosorbent assay.
A further experiment has as its target T1, recombinant CK2 (Homo sapiens, UniProt P68400).
T1 construct: purchased Upstate Biotechnology 17-132 (number of the activity kit, not of the enzyme)
The experiment can be described thus: Casein kinase 2 activity kit, 32P incorporation into substrate peptide. It is filed as biochemical. As for the experimental part: FIGS. 5A-5B are bar graphs showing that LY303511 inhibits the cell cycle by causing combined G1 and G2/M arrest and that LY303511 inhibits CK2 activity. For the data shown in FIG. 5A, PASM cells were cultured in medium with FBS for 48 hours before the addition of 0-100 μM LY303511 without or with raparnycin, 400 ng/ml, for 24 hours. Cells were then harvested and incubated with propidium iodide for 2 hours before counting using a Becton-Dickson FACSCalibur. Data are the means (±SEM) of percentages of cells in G1, S, or G2/M phase of the cell cycle in three experiments with duplicate assays. *p<0.05 vs. DMSO control, or †p<0.05 vs. 10 μM LY303511, by Student's t—test. FIG. 5B is a bar graph showing that LY303511 or LY294002 inhibits CK2 in vitro. As per the manufacturer (Upstate Biotechnologies), 0 or 100 ng of recombinant CK2 were incubated with CK2 substrate peptide and ^32P-γ-ATP for 10 min with 1% DMSO or inhibitors as indicated. Data are the means of values for samples with inhibitors expressed as percentage of that for control, which was (mean±SEM) 0.2±0.03 pmol phosphate/100 ng protein/10 min. Data are from three experiments performed in duplicate. *p<0.05 by Student's t-test when compared to DMSO control.
One specific assay for casein kinase 2 activity is available commercially as a kit from Upstate Biotechnology (New York). The assay is based on phosphorylation of a specific substrate (CK-2 substrate peptide) using the transfer of the gamma-phosphate of ^32P-ATP by casein kinase 2 during a 10 minute incubation at 30° C. The phosphorylated substrate is then separated from the residual ^32P-ATP using P81 phosphocellulose paper, and quantified by scintillation counting.
Casein kinase 2 (CK2) activity (counts per rninute) was measured using a casein kinase 2 activity kit (Upstate Biotechnology catalogue number 17-132) by incubating recombinant 100 ng CK2, magnesium/ATP cocktail (10 mcCi ^32P-garnma-ATP, 0.675 micromoles MgCl2, 4.5 nmoles ATP), and 10 micromoles peptide substrate (arnino acid sequence RRRDDDSDDD (SEQ ID NO: 1) in 50 mcl assay buffer without or with the indicated concentrations of DMSO (1%), LY294002, LY303511, or rapamycin for 10 minutes at 30° C. Assays were stopped with 20 mcl of 40% trichloroacetic acid, and 25 mcl were spotted on P81 phosphocellulose paper squares before washing 3 times with 0.75% phosphoric acid, and once with acetone. 32P incorporation on the substrate peptide was detected by counting the phosphocellulose squares in 5 ml scintillation fluid using a Packard 100 Tri-Carb liquid scintillation counter.
Measurement of casein kinase 2 (CK2) activity: CK2 activity (counts per minute) was measured using a CK2 activity kit (Upstate, Charlottesville, Va.) by incubating 100 ng of recombinant CK2, rnagnesium/ATP cocktail (10 μCi ^32P-gamma-ATP, 0.675 μmol MgCl2, 4.5 nmol ATP), and 10 μmol peptide substrate (amino acid sequence RRRDDDSDDD) in 50 μl assay buffer (20 mM MOPS, pH 7.2, 5 mM EGTA, 25 mM β-glycerol phosphate, 1 mM sodium orthovanadate, 1 mM dithiothreitol) without or with the indicated concentrations of LY294002, LY303511, wortmannin or rapamycin in 1% DMSO for 10 min at 30° C. Assays were stopped with 20 μl of 40% trichloroacetic acid, and samples (25 μl) of supernatant were applied to P81 phosphocellulose paper squares, which were then washed three times with 0.75% phosphoric acid, and once with acetone. ^32P in the substrate peptide was quantified using a Packard 100 Tri-Carb liquid scintillation counter on phosphocellulose squares in 5 ml of scintillation fluid. Activity is expressed as pmol phosphate incorporated per 10 minutes. CK2 activity measured in the presence of inhibitors was divided by that measured for the DMSO control (=100% control).

T1 sequence (P68400 whole entry): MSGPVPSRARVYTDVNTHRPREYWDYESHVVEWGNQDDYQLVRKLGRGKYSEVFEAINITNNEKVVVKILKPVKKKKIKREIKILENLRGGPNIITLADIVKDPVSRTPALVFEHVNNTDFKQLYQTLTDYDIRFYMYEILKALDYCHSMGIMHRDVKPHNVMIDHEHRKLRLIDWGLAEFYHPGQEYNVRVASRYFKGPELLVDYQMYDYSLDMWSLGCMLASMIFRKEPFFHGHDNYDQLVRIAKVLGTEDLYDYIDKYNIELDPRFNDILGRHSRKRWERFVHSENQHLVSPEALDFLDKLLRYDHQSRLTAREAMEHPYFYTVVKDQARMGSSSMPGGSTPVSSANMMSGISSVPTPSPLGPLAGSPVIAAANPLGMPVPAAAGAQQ
T1 sequence (P67870 2-215 partner limits assumed): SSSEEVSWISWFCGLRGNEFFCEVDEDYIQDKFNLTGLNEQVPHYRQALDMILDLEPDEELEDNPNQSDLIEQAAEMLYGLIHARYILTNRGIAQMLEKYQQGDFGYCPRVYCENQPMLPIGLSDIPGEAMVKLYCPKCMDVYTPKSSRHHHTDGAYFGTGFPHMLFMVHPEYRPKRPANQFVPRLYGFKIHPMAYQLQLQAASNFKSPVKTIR

`O=c1cc(N2CCNCC2)oc2c(-c3ccccc3)cccc12` [LY303511, 2-(4-piperazinyl)-8-phenyl-4H-1-benzopyran-4-one]: the “phosphorylation of P70 S6 kinase at T389” value in the experiment on P70 S6 kinase (A549 cells in serum-containing media, 100 mcM LY303511 or rapamycin 200 ng/ml, 12 and 24 hours) is “blocked phosphorylation of P70 S6 kinase at T389”. In the experiment with P70 S6 kinase (A549 cells, LPS/IFNγ-stimulated), the “lowest concentration inhibiting LPS/IFNγ-stimulated mTOR activity and mTOR-dependent phosphorylation of S6K” value was 1 µM. The “phosphorylation of P70 S6 kinase (pS6K T389)” value in the experiment on P70 S6 kinase (A549 cells, 100 mcM LY303511, rapamycin 200 ng/ml or wortmannin for 1 hour before LPS/IFN-γ, Western blot) is “blocks phosphorylation of P70 S6 kinase”. The IC50 is approximately 10 µM with P70 S6 kinase (Homo sapiens, A549 cells, stimulated, densitometric analysis of pS6K phosphoblots, read-out: IC50 for inhibition of S6K phosphorylation) and 10 to 100 µM at recombinant CK2 (recombinant CK2 in vitro, read-out: IC50 for casein kinase 2). In addition, the “BrDu uptake (DNA synthesis, proliferation)” value in the experiment with A549 cells is recorded as “concentration-dependent reduction”. Moreover, the CK2 activity result at recombinant CK2 (100 ng recombinant CK2, 10 min at 30° C.) is recorded as “concentration-dependent inhibition of CK2 activity”. Further, the “preferential inhibition as compared to PI3K” value at recombinant CK2 (P70 S6 kinase and casein kinase 2 versus PI3K) was “preferentially inhibits P70 S6 kinase and casein kinase 2 as compared to PI3K”.

Usually IC50 stands for the concentration at which inhibition is half-maximal.
